Data on 1 molecule can be found in patent US9956179B2, “Process and apparatuses for preparing nanoparticle compositions with amphiphilic copolymers and their use” (The Trustees of Princeton University, priority 2001, dated 2018).

This series is described as follows: Particle size distribution by Malvern Mastersizer S (volume basis). The note with it: first analysis after formation, diluted with water. The class given is physicochemical. How it is done: For the examples containing a substantial fraction of nanoparticles <100 nm in diameter, photon correlation spectroscopy was performed on a Brookhaven with an ALV5000 multiple tau correlator to determine the average particle size using a second order cumulant fit. In accordance with standard practice, the viscosity and index of refraction of the solvent at a volume percentage the same as after mixing were input as properties of the fluid. A Malvern Mastersizer S version 2.18 was also used to determine the particle size distribution based on volume, or similar to a weight. Likewise, the average particle size was based on volume or mass, D[4,3]. The data analysis used a polydisperse model and the Standard-Wet (3OHD) presentation that assumes the particle is suspended in water. Some samples were diluted with water for analysis. For all processing conditions, the water used was purified by RO and filtered and the temperature is given within 2° C. The polymer blocks were nominal molecular weight with the nomenclature (1000) describing a block nominally of 1000 g/mole. The blocks could have contained minor impurities (<10% by weight and typically <5% by weight) due to the method of synthesis.

As to `CC1=C(/C=C/C(C)=C/C=C/C(C)=C/C=C/C=C(C)/C=C/C=C(C)/C=C/C2=C(C)CCCC2(C)C)C(C)(C)CCC1` [β-carotene], the “Mean size D[4,3]” value came to 120 μm and the “Yield of nanoparticles below 1060 nm” value is 9%.
